What was measured:
D(1A) dopamine receptor = D(1A) dopamine receptor (Homo sapiens, UniProt P21728)
[1] = biological target: T1, Muscarinic acetylcholine receptor M2 (Homo sapiens, UniProt P08172)
T1 sequence (P08172 whole entry): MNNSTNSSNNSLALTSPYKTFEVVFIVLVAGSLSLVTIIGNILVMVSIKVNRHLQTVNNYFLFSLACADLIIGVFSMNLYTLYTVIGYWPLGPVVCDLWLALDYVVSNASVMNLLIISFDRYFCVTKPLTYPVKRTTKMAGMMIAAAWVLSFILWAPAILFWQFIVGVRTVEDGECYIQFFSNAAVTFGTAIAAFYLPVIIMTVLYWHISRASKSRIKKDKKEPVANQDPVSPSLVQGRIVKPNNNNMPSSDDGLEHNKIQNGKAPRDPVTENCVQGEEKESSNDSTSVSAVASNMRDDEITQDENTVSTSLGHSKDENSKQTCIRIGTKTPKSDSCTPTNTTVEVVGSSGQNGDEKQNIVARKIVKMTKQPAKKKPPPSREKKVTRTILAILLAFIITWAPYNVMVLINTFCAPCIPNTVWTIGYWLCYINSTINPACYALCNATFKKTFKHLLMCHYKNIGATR

[2] = biological target: T2, 5-hydroxytryptamine receptor 1A (Homo sapiens, UniProt P08908)
T2 sequence (P08908 whole entry): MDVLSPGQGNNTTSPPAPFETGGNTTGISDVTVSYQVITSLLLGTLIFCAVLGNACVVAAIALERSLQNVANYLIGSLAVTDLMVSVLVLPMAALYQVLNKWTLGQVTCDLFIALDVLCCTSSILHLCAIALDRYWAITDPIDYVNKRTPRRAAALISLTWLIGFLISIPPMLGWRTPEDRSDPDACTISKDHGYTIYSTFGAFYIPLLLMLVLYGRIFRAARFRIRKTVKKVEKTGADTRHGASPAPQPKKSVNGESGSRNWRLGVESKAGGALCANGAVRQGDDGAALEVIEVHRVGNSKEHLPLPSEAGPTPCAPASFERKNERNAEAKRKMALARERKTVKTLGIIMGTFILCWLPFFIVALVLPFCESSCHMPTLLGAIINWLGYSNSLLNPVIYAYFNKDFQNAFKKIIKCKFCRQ

D(1B) dopamine receptor = D(1B) dopamine receptor (Homo sapiens, UniProt P21918)
Chain of D(1B) dopamine receptor (P21918 whole entry): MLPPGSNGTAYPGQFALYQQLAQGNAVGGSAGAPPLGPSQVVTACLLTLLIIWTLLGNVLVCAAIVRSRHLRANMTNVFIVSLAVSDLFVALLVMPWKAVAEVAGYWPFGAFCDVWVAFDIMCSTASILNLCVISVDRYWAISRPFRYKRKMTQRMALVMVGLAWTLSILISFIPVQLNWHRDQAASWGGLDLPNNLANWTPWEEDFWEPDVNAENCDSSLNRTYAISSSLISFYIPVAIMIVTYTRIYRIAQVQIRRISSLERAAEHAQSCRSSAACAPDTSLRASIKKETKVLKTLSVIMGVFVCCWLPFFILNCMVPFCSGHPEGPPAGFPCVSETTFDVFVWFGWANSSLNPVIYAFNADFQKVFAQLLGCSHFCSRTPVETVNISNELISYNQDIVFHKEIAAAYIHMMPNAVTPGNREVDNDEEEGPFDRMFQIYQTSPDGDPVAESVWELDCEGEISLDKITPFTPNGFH

[3] = biological target: 5-hydroxytryptamine receptor 2A (Rattus norvegicus, UniProt P14842)
Chain of 5-hydroxytryptamine receptor 2A (P14842 whole entry): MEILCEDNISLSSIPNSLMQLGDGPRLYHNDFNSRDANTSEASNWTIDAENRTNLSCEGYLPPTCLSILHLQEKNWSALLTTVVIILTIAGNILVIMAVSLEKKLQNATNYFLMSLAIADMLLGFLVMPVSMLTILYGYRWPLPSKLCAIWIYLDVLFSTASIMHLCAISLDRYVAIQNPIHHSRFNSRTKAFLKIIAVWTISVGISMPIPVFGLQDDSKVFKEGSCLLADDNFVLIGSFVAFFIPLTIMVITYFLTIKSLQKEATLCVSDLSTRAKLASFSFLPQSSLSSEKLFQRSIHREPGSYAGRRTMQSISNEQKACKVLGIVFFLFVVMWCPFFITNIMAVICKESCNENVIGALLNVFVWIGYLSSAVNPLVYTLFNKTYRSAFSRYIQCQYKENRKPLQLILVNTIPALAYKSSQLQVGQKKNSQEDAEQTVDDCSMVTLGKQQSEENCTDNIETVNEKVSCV

Mu-type opioid receptor = Mu-type opioid receptor (Homo sapiens, UniProt P35372)
Chain of Mu-type opioid receptor (P35372 whole entry): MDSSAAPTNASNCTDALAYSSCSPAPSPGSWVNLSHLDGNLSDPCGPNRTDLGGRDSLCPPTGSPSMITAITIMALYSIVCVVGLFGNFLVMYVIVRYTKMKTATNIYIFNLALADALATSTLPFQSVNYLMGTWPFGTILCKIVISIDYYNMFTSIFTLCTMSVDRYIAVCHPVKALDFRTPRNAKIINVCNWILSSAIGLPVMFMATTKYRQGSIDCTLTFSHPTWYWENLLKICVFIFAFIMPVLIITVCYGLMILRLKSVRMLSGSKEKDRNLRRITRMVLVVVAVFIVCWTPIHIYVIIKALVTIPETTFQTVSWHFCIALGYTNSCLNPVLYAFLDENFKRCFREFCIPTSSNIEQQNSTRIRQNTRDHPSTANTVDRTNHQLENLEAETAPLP

D(2) dopamine receptor = D(2) dopamine receptor (Homo sapiens, UniProt P14416)
Chain of D(2) dopamine receptor (P14416 whole entry): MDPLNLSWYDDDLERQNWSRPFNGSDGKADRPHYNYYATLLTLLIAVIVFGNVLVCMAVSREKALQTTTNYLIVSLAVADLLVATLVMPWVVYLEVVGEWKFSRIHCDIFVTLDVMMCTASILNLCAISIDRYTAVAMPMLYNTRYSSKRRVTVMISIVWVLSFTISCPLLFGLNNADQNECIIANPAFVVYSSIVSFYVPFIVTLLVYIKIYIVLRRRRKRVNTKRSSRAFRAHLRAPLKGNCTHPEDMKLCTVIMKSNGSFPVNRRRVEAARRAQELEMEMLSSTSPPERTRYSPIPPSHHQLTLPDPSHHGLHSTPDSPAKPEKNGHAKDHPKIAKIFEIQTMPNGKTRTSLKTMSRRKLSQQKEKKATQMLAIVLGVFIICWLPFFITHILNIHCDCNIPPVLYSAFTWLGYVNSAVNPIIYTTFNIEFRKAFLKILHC

[4] = biological target: 5-hydroxytryptamine receptor 6 (Homo sapiens, UniProt P50406)
Chain of 5-hydroxytryptamine receptor 6 (P50406 whole entry): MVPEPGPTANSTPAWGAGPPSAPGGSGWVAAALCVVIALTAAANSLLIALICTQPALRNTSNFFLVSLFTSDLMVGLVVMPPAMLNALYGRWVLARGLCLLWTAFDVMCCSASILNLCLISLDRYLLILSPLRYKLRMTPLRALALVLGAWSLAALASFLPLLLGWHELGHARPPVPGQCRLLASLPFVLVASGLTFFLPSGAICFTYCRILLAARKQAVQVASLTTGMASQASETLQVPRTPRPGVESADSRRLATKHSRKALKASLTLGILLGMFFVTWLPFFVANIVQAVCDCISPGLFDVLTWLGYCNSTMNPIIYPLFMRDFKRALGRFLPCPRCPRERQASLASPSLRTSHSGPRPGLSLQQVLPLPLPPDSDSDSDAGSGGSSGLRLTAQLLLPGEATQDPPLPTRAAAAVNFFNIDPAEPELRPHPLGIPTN

[5] = biological target: T3, Muscarinic acetylcholine receptor M4 (Homo sapiens, UniProt P08173)
T3 sequence (P08173 whole entry): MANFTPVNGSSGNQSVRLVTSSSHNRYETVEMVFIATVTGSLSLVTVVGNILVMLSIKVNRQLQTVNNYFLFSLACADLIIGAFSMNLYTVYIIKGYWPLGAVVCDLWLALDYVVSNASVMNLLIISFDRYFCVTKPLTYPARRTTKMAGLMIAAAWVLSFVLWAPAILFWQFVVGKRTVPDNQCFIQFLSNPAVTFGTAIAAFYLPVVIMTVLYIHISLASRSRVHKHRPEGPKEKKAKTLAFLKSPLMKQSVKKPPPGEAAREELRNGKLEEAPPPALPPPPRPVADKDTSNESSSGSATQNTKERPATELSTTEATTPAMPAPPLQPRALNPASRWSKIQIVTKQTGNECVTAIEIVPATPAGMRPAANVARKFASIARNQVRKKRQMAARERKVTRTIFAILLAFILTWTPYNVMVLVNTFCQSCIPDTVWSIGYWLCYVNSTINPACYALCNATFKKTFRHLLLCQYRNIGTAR

[6] = biological target: Muscarinic acetylcholine receptor M3 (Homo sapiens, UniProt P20309)
Chain of Muscarinic acetylcholine receptor M3 (P20309 whole entry): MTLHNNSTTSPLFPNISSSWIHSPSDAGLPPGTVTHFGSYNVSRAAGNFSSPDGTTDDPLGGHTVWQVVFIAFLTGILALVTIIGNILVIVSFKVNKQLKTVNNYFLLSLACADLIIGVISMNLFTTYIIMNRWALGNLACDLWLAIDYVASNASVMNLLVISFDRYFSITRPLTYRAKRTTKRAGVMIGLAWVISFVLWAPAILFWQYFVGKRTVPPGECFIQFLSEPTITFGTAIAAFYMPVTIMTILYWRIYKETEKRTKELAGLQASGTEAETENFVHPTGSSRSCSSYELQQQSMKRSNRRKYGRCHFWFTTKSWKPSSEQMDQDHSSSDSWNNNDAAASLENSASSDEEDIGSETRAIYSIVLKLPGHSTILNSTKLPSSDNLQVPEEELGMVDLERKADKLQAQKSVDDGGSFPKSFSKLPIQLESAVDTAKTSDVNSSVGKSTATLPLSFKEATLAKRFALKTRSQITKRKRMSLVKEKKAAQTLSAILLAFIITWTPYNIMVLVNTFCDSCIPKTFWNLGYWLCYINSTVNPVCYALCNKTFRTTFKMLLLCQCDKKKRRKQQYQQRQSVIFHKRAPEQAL

[7] = biological target: Sodium-dependent noradrenaline transporter (Homo sapiens, UniProt P23975)
Chain of Sodium-dependent noradrenaline transporter (P23975 whole entry): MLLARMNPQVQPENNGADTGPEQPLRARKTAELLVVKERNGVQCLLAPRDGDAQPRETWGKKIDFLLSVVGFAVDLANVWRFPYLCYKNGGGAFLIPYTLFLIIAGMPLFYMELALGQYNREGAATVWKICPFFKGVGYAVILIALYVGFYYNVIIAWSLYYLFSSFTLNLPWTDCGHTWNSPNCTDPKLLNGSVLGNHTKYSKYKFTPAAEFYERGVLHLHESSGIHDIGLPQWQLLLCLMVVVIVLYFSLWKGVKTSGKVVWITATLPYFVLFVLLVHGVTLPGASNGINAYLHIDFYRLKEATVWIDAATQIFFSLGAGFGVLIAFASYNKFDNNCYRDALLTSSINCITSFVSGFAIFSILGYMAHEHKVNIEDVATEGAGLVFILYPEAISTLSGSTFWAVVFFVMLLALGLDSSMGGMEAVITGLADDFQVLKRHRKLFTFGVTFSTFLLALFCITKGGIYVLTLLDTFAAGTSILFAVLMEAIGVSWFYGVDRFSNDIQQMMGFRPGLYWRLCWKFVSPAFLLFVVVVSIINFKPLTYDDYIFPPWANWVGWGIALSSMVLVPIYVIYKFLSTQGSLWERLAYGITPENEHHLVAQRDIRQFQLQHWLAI

[8] = biological target: T4, Alpha-1B adrenergic receptor (Homo sapiens, UniProt P35368)
T4 sequence (P35368 whole entry): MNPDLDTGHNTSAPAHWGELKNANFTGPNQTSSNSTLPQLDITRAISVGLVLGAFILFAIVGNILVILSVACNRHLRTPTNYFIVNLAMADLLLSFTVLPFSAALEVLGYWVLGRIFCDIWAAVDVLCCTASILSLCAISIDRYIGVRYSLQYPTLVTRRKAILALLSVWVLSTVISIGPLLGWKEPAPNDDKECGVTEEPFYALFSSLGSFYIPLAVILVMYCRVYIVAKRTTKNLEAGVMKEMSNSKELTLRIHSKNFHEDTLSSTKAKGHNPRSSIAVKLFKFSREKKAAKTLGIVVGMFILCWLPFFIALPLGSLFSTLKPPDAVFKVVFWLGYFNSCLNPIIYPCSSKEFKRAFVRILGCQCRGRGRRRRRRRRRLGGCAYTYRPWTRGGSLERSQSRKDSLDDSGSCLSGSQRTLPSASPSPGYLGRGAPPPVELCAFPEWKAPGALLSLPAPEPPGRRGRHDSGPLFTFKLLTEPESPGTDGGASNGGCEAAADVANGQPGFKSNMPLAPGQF

Chain of D(1A) dopamine receptor (P21728 whole entry): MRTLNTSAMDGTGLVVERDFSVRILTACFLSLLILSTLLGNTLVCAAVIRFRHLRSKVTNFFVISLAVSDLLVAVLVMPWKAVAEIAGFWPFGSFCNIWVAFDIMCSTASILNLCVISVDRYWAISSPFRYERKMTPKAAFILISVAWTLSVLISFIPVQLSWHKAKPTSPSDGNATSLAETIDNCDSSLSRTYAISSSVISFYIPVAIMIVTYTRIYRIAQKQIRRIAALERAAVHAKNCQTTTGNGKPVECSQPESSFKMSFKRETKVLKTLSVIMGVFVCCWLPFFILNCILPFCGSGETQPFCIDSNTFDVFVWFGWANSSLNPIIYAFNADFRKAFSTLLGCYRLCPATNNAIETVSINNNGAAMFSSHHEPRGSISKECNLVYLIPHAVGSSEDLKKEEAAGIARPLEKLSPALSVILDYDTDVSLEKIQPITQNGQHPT

Row | SMILES | Ki (D(1A) dopamine receptor) [µM] | Ki [1] [µM] | Ki [2] [µM] | Ki (D(1B) dopamine receptor) [µM] | Ki [3] [µM] | Ki (Mu-type opioid receptor) [µM] | Ki (D(2) dopamine receptor) [µM] | Ki [4] [µM] | Ki [5] [µM] | Ki [6] [µM] | Ki [7] [µM] | Ki [8] [µM]
1 | N[C@@H](CCS(=O)(=O)O)C(=O)O (racemic) | > 10 | > 10 | > 10 | > 10 | > 10 | > 10 | > 10 | > 10 | > 10 | > 10 | > 10 | > 10
2 | NC(CSSCC(N)C(=O)O)C(=O)O (centres undefined) [CAS_595] | > 10 | > 10 | > 10 | > 10 | > 10 | > 10 | > 10 | > 10 | > 10 | > 10 | > 10 | > 10
3 | N[C@@H](CS)C(=O)O [CAS_5862] | > 10 | > 10 | > 10 | > 10 | > 10 | > 10 | > 10 | > 10 | > 10 | > 10 | > 10 | > 10
4 | N[C@@H]1CCSC1=O [D-homocysteine thiolactone] | > 10 | > 10 | > 10 | > 10 | > 10 | > 10 | > 10 | > 10 | > 10 | > 10 | > 10 | > 10
5 | N[C@@H](CCS(=O)O)C(=O)O [L-homocysteine sulfinic acid] | > 10 | > 10 | > 10 | > 10 | > 10 | > 10 | > 10 | > 10 | > 10 | > 10 | > 10 | > 10
6 | N[C@H]1CCSC1=O [NSC_134505] | > 10 | > 10 | > 10 | > 10 | > 10 | > 10 | > 10 | > 10 | > 10 | > 10 | > 10 | > 10

Continued, values first:

Row | Ki (D(1A) dopamine receptor) [µM] | Ki [1] [µM] | Ki [2] [µM] | Ki (D(1B) dopamine receptor) [µM] | Ki [3] [µM] | Ki (Mu-type opioid receptor) [µM] | Ki (D(2) dopamine receptor) [µM] | Ki [4] [µM] | Ki [5] [µM] | Ki [6] [µM] | Ki [7] [µM] | Ki [8] [µM] | SMILES
7 | > 10 | > 10 | > 10 | > 10 | > 10 | > 10 | > 10 | > 10 | > 10 | > 10 | > 10 | > 10 | N[C@@H](CCS)C(=O)O (racemic) [CAS_778]
8 | > 10 | > 10 | > 10 | > 10 | > 10 | > 10 | > 10 | > 10 | > 10 | > 10 | > 10 | > 10 | NC(CS(=O)O)C(=O)O (centres undefined) [CAS_109]
9 | > 10 | > 10 | > 10 | > 10 | > 10 | > 10 | > 10 | > 10 | > 10 | > 10 | > 10 | > 10 | CSCC[C@@H](N)C(=O)O [CAS_6137]
10 | > 10 | > 10 | > 10 | > 10 | > 10 | > 10 | > 10 | > 10 | > 10 | > 10 | > 10 | > 10 | N[C@H](CCS(=O)(=O)O)C(=O)O [D-homocysteic acid]
11 | > 10 | > 10 | > 10 | > 10 | > 10 | > 10 | > 10 | > 10 | > 10 | > 10 | > 10 | > 10 | N[C@H](CCS(=O)O)C(=O)O [D-homocysteine sulfinic acid]
12 | > 10 | > 10 | > 10 | > 10 | > 10 | > 10 | > 10 | > 10 | > 10 | > 10 | > 10 | > 10 | N[C@H](CS(=O)(=O)O)C(=O)O [L-cysteic acid]
